Measured values taken from patent US9995730B2, “Hypoxia Inducible Factor (HIF) Activity Reporter Cell Line” (Universiti Putra Malaysia (UPM), priority 2012, dated 2018).

How the values were obtained:
HIF = HIF activity reporter assay (single luciferase assay, 4XEPO-HRE-FLuc stable Saos-2 clone 3); type: cell-based, human; conditions: for reporter signal intensities: FIGS. 9A and B legend
Description: To confirm the HIF reporter activity of neomycin-resistant parental population, a single luciferase assay was conducted. Initially, 2.5×10^4 of the cells were plated in wells of a 48-well plates in antibiotic-free DMEM with 10% FBS for 16 hours. One of the plates was then incubated for 24 hours in a normoxic (21% 02) gaseous atmosphere in a humidified CO2 incubator while the other was incubated in a hypoxic (0.5% 02) gaseous environment in a hypoxic chamber (BioSpherix, USA) controlled by an oxygen regulator (ProOx model 110, BioSpherix, USA. After 24 hours of exposure to different oxygen concentrations, Bright-Glo™ Luciferase Assay (Promega, USA) was conducted to analyse the HIF reporter activity. Initially, growth media in each well was discarded and the cells were rinsed once with 300 μl of 1×PBS. Room temperature-equilibrated Glo Lysis Buffer (GLB; 60 μl) was then added into the wells. Plates were then gently rocked on a shaker for 5 min at room temperature. Cell lysis was confirmed visually by observing the wells of the 48-well plate under a light microscope. Thirty microliters of the resulting cell lysates were then transferred into individual glass vials. Bright-Glo™ Assay Reagent was then added into each tube at a 1:1 (v/v) ratio. Luminescence intensity was immediately read and recorded by a Luminometer (Sirius-2, Titertek-Berthold).
(§1) To verify the property of the stable single cell population as an assay system to measure HIF activity, a proof of concept study was performed with commercially available and known HIF inhibitors. […] Treatment of these drugs in certain cancer cells leads to cell death. To confirm that the inhibition of bioluminescence in our cell assay system is due to HIF inhibition rather than this cytotoxic effect, we simultaneously determined the viability of cells under various concentrations of each drug used for the inhibition assay. The 3-(4,5-dimethylthiazol-2-yl)-2,5-[…] bromide MTT assay was used. […] The cells were then incubated in either normoxic or hypoxic conditions for 24 hours. After the treatment, cell culture media was replaced with fresh serum-free DMEM containing 0.5 mg/ml MTT. After 4 hours of incubation in a humidified CO2 incubator at 37° C., formazan precipitates were dissolved with 100 μl of DMSO. The resulting reaction was read using a microplate reader at 570 nm absorbance and 630 nm as the reference wavelength. The half maximal inhibitory concentration (IC50) of each drug towards the cells was determined by plotting graphs using the Graphpad Prism 5 software. HIF inhibitory effects at the various concentrations of drugs tested were also measured using the single luciferase assay system. A correlation between the drugs' effects on cell viability and HIF inhibition was then evaluated.

[1] = tested on: clone 3 cells (stable Saos-2 osteosarcoma clone); experiment: MTT cell viability assay; type: cell-based, human
Description: as §1, with “To confirm that the inhibition of bioluminescence in our cell assay system is due to HIF inhibition rather than this cytotoxic effect, we simultaneously determined the viability of cells under various concentrations of each drug used for the inhibition assay.” left out

Structure (SMILES): CC(C)C[C@H](NC(=O)[C@H](Cc1ccccc1)NC(=O)c1cnccn1)B(O)O [Bortezomib]
- reporter signal intensities (HIF): reduction of reporter signal intensities
- hypoxia-induced luciferase signal (HIF; clone 3 cells, hypoxia, concentrations of up to 500 nM): significantly reduced
- cell viability ([1]; concentrations higher than 500 nM): the inhibition was associated with cell death
- cell viability ([1]; concentrations of up to 500 nM): without affecting cell viability

Structure (SMILES): N.N.[Cl][Pt][Cl] [cisplatin]
- reporter signal intensities (HIF): reduction of reporter signal intensities
- inhibition of luciferase signals (HIF; hypoxic clone 3, 25 μM concentration): ~60%
